# Values of other authors, collected in PubChem BioAssay AID1259409 (Chemical Carcinogenesis Research Information System (CCRIS), 2018).
# “And” between values parts separate entries of the source, which are not always exact repeats. Equal values may be shown once.
# System: rodent chemically induced tumor inhibition, incidence and multiplicity
# Experiment: CCRIS tumor inhibitor studies
smiles,measurement,setting,value
CC(C)=CCC/C(C)=C/COc1c2ccoc2cc2oc(=O)ccc12,"tumour outcome (control, treated, inhibition, significance)","Carcinogen: 7,12-DIMETHYLBENZ[A]ANTHRACENE, 57-97-6, Dose [Inhibitor]: 0, 400 NMOL ONCE APPLIED 5 MIN PRIOR TO CARCINOGEN DOSE (STUDY DURATION: 25 WK), Route [Inhibitor]: DERMAL, Species: MOUSE, Strain/Sex: SENCAR, Target Tissue: Type of Lesion: SKIN: PAPILLOMA, Dose [Carcinogen]: 10 NMOL ONCE, Promoter: 12-O-TETRADECANOYLPHORBOL-13-ACETATE, 16561-29-8","96%, 100%, -4%, not significant"
same,"tumour outcome (control, treated, inhibition, significance)","Carcinogen: 7-12-DIMETHYLBENZ[A]ANTHRACENE, 57-97-6, Dose [Inhibitor]: 0, 800 NMOL ONCE APPLIED 5 MIN PRIOR TO CARCINOGEN DOSE (STUDY DURATION: 25 WK), Route [Inhibitor]: DERMAL, Species: MOUSE, Strain/Sex: SENCAR, Target Tissue: Type of Lesion: SKIN: PAPILLOMA, Dose [Carcinogen]: 10 NMOL ONCE, Promoter: 12-O-TETRADECANOYLPHORBOL-13-ACETATE, 16561-29-8","96%, 100%, -4%, not significant and 93%, 96%, -3%, not significant"
same,"tumour outcome (control, treated, inhibition, significance)","Carcinogen: BENZO[A]PYRENE, 50-32-8, Dose [Inhibitor]: 0, 20 NMOL ONCE APPLIED 5 MIN PRIOR TO CARCINOGEN DOSE (STUDY DURATION: 25 WK), Route [Inhibitor]: DERMAL, Species: MOUSE, Strain/Sex: SENCAR, Target Tissue: Type of Lesion: SKIN: PAPILLOMA, Dose [Carcinogen]: 200 NMOL ONCE, Promoter: 12-O-TETRADECANOYLPHORBOL-13-ACETATE, 16561-29-8","91%, 100%, -10%, not significant"
same,"tumour outcome (control, treated, inhibition, significance)","Carcinogen: BENZO[A]PYRENE, 50-32-8, Dose [Inhibitor]: 0, 100 NMOL ONCE APPLIED 5 MIN PRIOR TO CARCINOGEN DOSE (STUDY DURATION: 25 WK), Route [Inhibitor]: DERMAL, Species: MOUSE, Strain/Sex: SENCAR, Target Tissue: Type of Lesion: SKIN: PAPILLOMA, Dose [Carcinogen]: 200 NMOL ONCE, Promoter: 12-O-TETRADECANOYLPHORBOL-13-ACETATE, 16561-29-8","91%, 87%, 4%, not significant"
same,"tumour outcome (control, treated, inhibition, significance)","Carcinogen: BENZO[A]PYRENE, 50-32-8, Dose [Inhibitor]: 0, 400 NMOL ONCE APPLIED 5 MIN PRIOR TO CARCINOGEN DOSE (STUDY DURATION: 25 WK), Route [Inhibitor]: DERMAL, Species: MOUSE, Strain/Sex: SENCAR, Target Tissue: Type of Lesion: SKIN: PAPILLOMA, Dose [Carcinogen]: 200 NMOL ONCE, Promoter: 12-O-TETRADECANOYLPHORBOL-13-ACETATE, 16561-29-8","91%, 92%, -1%, not significant"
same,"tumour outcome (control, treated, inhibition, significance)","Carcinogen: BENZO[A]PYRENE, 50-32-8, Dose [Inhibitor]: 0, 800 NMOL ONCE APPLIED 5 MIN PRIOR TO CARCINOGEN DOSE (STUDY DURATION: 25 WK), Route [Inhibitor]: DERMAL, Species: MOUSE, Strain/Sex: SENCAR, Target Tissue: Type of Lesion: SKIN: PAPILLOMA, Dose [Carcinogen]: 200 NMOL ONCE, Promoter: 12-O-TETRADECANOYLPHORBOL-13-ACETATE, 16561-29-8","91%, 82%, 10%, not significant"
CC[C@H](CC[C@@H](C)[C@H]1CC[C@H]2[C@@H]3CC=C4C[C@@H](O)CC[C@]4(C)[C@H]3CC[C@]12C)C(C)C,"tumour outcome (control, treated, inhibition, significance)","Carcinogen: 7,12-DIMETHYLBENZ[A]ANTHRACENE, 57-97-6, Dose [Inhibitor]: 0, 5 UMOL 2/WK BEGINNING 1 WK POST CARCINOGEN TREATMENT AND CONTINUING FOR 18 WK (STUDY DURATION: 19 WK), Route [Inhibitor]: DERMAL, Species: MOUSE, Strain/Sex: ICR/FEMALE, Target Tissue: Type of Lesion: SKIN: PAPILLOMA, Dose [Carcinogen]: 50 UG ONCE, Promoter: 12-O-TETRADECANOYLPHORBOL-13-ACETATE, 16561-29-8","100%, 80%, 20%, not calculated"
same,"tumour outcome (control, treated, inhibition, significance)","Carcinogen: AZOXYMETHANE, 25843-45-2, Dose [Inhibitor]: 2 G/KG DIET DAILY FOR 26 WK STARTING SIMULTANEOUSLY WITH CARCINOGEN TREATMENT (STUDY DURATION: 26 WK), Route [Inhibitor]: ORAL, Species: RAT, Strain/Sex: SPRAGUE-DAWLEY/MALE, Target Tissue: Type of Lesion: LARGE INTESTINE: MALIGNANT TUMOR, Dose [Carcinogen]: 8 MG/KG BW INJECTED 1/WK FOR 8 WK, Promoter: NONE USED","90%, 93%, -3%, not significant"
same,"tumour outcome (control, treated, inhibition, significance)","Carcinogen: AZOXYMETHANE, 25843-45-2, Dose [Inhibitor]: 2 G/KG DIET DAILY FOR 26 WK STARTING SIMULTANEOUSLY WITH CARCINOGEN TREATMENT (STUDY DURATION: 26 WK), Route [Inhibitor]: ORAL, Species: RAT, Strain/Sex: SPRAGUE-DAWLEY/MALE, Target Tissue: Type of Lesion: SMALL INTESTINE: MALIGNANT TUMOR, Dose [Carcinogen]: 8 MG/KG BW INJECTED 1/WK FOR 8 WK, Promoter: NONE USED","90%, 96%, -7%, not significant"
same,"tumour outcome (control, treated, inhibition, significance)","Carcinogen: AZOXYMETHANE, 25843-45-2, Dose [Inhibitor]: 2 G/KG DIET DAILY STARTING SIMULTANEOUSLY WITH CARCINOGEN TREATMENT AND CONTINUING THROUGH END OF STUDY (STUDY DURATION:, Route [Inhibitor]: ORAL, Species: RAT, Strain/Sex: SPRAGUE-DAWLEY/MALE, Target Tissue: Type of Lesion: LARGE INTESTINE: MALIGNANT TUMOR, Dose [Carcinogen]: 8 MG/KG BW 1/WK FOR 8 WK, Promoter: NONE USED","90%, 93%, -3%, not significant"
same,"tumour outcome (control, treated, inhibition, significance)","Carcinogen: AZOXYMETHANE, 25843-45-2, Dose [Inhibitor]: 2 G/KG DIET DAILY STARTING SIMULTANEOUSLY WITH CARCINOGEN TREATMENT AND CONTINUING THROUGH END OF STUDY (STUDY DURATION:, Route [Inhibitor]: ORAL, Species: RAT, Strain/Sex: SPRAGUE-DAWLEY/MALE, Target Tissue: Type of Lesion: SMALL INTESTINE: MALIGNANT TUMOR, Dose [Carcinogen]: 8 MG/KG BW 1/WK FOR 8 WK, Promoter: NONE USED","90%, 96%, -7%, not significant"
same,"tumour outcome (control, treated, inhibition, significance)","Carcinogen: N-METHYL-N-NITROSOUREA, 684-93-5, Dose [Inhibitor]: 0.2% IN DIET DAILY FOR 28 WK STARTING SIMULTANEOUSLY WITH CARCINOGEN TREATMENT AND CONTINUING FOR DURATION OF STUDY (STU, Route [Inhibitor]: ORAL, Species: RAT, Strain/Sex: FISCHER CD/MALE, Target Tissue: Type of Lesion: COLON: ADENOMA, Dose [Carcinogen]: 2 MG IN 0.5 ML OF 0.9% NACL SOLUTION 1/3 D FOR 10 D, Promoter: NONE USED","38/71 (54%), 16/48 (33%), 39%, p<0.05"
CCCCCCC[Se]C#N,"tumour outcome (control, treated, inhibition, significance)","Carcinogen: 7,12-DIMETHYLBENZ[A]ANTHRACENE, 57-97-6, Dose [Inhibitor]: 0.1, 2 PPM (SELENIUM) IN DIET FOR 3 WK BEGINNING 2 WK PRIOR TO CARCINOGEN DOSE (STUDY DURATION: 25 WK), Route [Inhibitor]: ORAL, Species: RAT, Strain/Sex: SPRAGUE-DAWLEY/FEMALE, Target Tissue: Type of Lesion: MAMMARY GLAND: TUMOR, Dose [Carcinogen]: 10 MG ONCE, Promoter: NONE USED","25/30 (83%), 11/30 (37%), 55%, p<0.05"
